Holding throughout (assay): growth of human tumour cells (NCI), 48 h
Test [1] deals with HL-60.
For test [2], the system named is MDA-N.
The test system of test [3] is A498.
Test [4] relates to SN12C.
Test [5] deals with MDA-MB-435.
The test system of test [6] is MCF7.
For test [7], the system named is OVCAR-5.
Test [8] concerns SNB-75.
In test [9] the test system is SF-539.
The subject of test [10] is SNB-19.
In test [11] the test system is BT-549.
Test [12] deals with COLO 205.
In test [13] the test system is SK-MEL-2.
Test [14] concerns SR.
In test [15] the test system is U-251.
The subject of test [16] is LOX IMVI.
Test [17] concerns SK-MEL-5.
The subject of test [18] is NCI-H23.
The test system of test [19] is HCC 2998.
Test [20] deals with M19-MEL.

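Compound exposure: 48 hours, 5 concentrations, 96-well plates. Abbreviation: GI50, concentration required for 50% inhibition of growth.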 The source made the active and inactive calls. No stated cut-off is given here; in the data, active = GI50 up to about 1.1 µM and inactive = higher. Where only a bound is given, the exact number is not on record here.

The record followed here is ChEMBL document CHEMBL1201862, “PubChem BioAssay data set” (2004).

Consider `O=c1[nH]c2[nH]c(-c3ccc(Br)cc3)cc2c2ccccc12`, for which the GI50 in test [1] was 13.5 µM (inactive); in test [2], > 100 µM (inactive); in test [3] it was > 100 µM (inactive); in test [4], 41.4 µM (inactive); in test [5] it was > 100 µM (inactive); in test [6], > 100 µM (inactive). The GI50 in [7] is > 100 µM (inactive); in test [8], 19.4 µM (inactive); in [9], > 100 µM (inactive); in [10], 29.4 µM (inactive); in [11], 76.4 µM (inactive); in [12], 34.7 µM (inactive). The GI50 in [13] is > 100 µM (inactive); in test [14], 11.3 µM (inactive); in test [15], 28.8 µM (inactive); in [16], > 10 µM (inactive); in test [17] it was > 100 µM (inactive); in [18] it was > 100 µM (inactive). Besides, the GI50 in test [19] is > 100 µM (inactive).
With `COc1ccc2oc(C(=O)N3CC(CCl)c4ccc(N)cc43)cc2c1` (stereo not drawn), the GI50 in [1] was 0.415 µM (active); in [2], 0.553 µM (active); in [3], 0.296 µM (active); in test [4], 0.869 µM (active); in [5], 0.332 µM (active); in [6], 0.465 µM (active). For the same molecule, the GI50 is 0.53 µM (active) in test [7]; 0.308 µM (active) in test [8]; 0.481 µM (active) in test [9]; 1.14 µM (inactive) in [10]; 0.299 µM (active) in test [11]; 0.284 µM (active) in test [12]. Further, the GI50 in test [13] is 0.238 µM (active); in test [14], 0.16 µM (active); in test [15], 0.333 µM (active); in test [16], 0.356 µM (active); in [17] it was 0.176 µM (active); in [18] it was 0.174 µM (active). Also, the GI50 in test [19] is 0.489 µM (active).
As for `Clc1ccc(/C(=C\c2ccccc2)Cn2ccnc2)cc1`, the GI50 in test [1] is 14.1 µM (inactive); in test [2] it was 14.9 µM (inactive); in [3], 15.3 µM (inactive); in test [4], 27.4 µM (inactive); in test [5], 11.2 µM (inactive); in test [6], 16.1 µM (inactive). Also, the GI50 in test [7] was 19.8 µM (inactive); in test [8], 26.2 µM (inactive); in [9], 16.3 µM (inactive); in test [10] it was 21 µM (inactive); in test [11], 14.4 µM (inactive); in test [12], 15.1 µM (inactive). For the same molecule, the GI50 in test [13] is 14.3 µM (inactive); in test [14] it was 3.46 µM (inactive); in test [15], 15.2 µM (inactive); in [16], 8.83 µM (inactive); in [17] it was 12.8 µM (inactive); in test [18] it was 28.9 µM (inactive). For the same molecule, in test [19], the GI50 was 21.3 µM (inactive).
For `COc1ccc(C/C(=N/O)C(=O)NCCc2cc(Br)c(OCCCN(C)C)c(Br)c2)cc1Br` [APLYSAMINE 2], the GI50 in test [1] was 12.3 µM (inactive); in [4], 18.5 µM (inactive); in test [7] it was 22.3 µM (inactive); in test [8], 18.9 µM (inactive); in test [9], 13.6 µM (inactive); in [20], 18.2 µM (inactive). Moreover, the GI50 is 16.3 µM (inactive) in test [10]; 18.8 µM (inactive) in test [12]; 20.1 µM (inactive) in [13]; 17.7 µM (inactive) in test [15]; 16.2 µM (inactive) in test [16]; > 10 µM (inactive) in [18]. The GI50 in [19] was 14.1 µM (inactive).
Turning to `CC(C)N1CC2CC(CN(C(=O)c3ccc(Cl)cc3)C2)C1`, the GI50 in test [1], in test [3], in test [4], in [7], in [8] and in [9] was > 100 µM (inactive) each time. For the same molecule, the GI50 in test [20], in test [10], in [12], in [13], in test [15] and in test [16] was > 100 µM (inactive) each time. The GI50 in test [17] and in [18] was > 100 µM (inactive) each time.
On to `C(=N\NC1=NCCN1)/c1ccc(-c2cn3cc(/C=N/NC4=NCCN4)ccc3n2)cc1`, for which the GI50 in test [1] is 4.48 µM (inactive); in test [2], > 49 µM (inactive); in test [3] it was 40.3 µM (inactive); in test [4], > 36.9 µM (inactive); in test [5] it was 24.5 µM (inactive); in test [6] it was 2.2 µM (inactive). The GI50 in test [7] was 64.3 µM (inactive); in test [8], > 100 µM (inactive); in [9] it was > 100 µM (inactive); in test [10] it was > 43.1 µM (inactive); in test [11], 18.2 µM (inactive); in test [12], > 100 µM (inactive). Besides, the GI50 in test [13] is > 100 µM (inactive); in test [14], 3.33 µM (inactive); in test [15], 15.5 µM (inactive); in [16], 7.74 µM (inactive); in test [17], > 100 µM (inactive); in [18], > 100 µM (inactive). The GI50 in test [19] is > 47.2 µM (inactive).
As to `CN1CCC23c4c5ccc(Oc6nnnn6-c6ccccc6)c4OC2c2[nH]c4ccccc4c2CC3(O)C1C5` (stereo not drawn), the GI50 in test [1] was 1.81 µM (inactive); in [2], 1.73 µM (inactive); in test [3], 2.4 µM (inactive); in test [4], 2.75 µM (inactive); in test [5] it was 4.01 µM (inactive); in test [6] it was 2.27 µM (inactive). Also, the GI50 in test [7] is 17.2 µM (inactive); in test [8], 2.59 µM (inactive); in test [9] it was 2.62 µM (inactive); in test [10], 7.66 µM (inactive); in test [11], 16.5 µM (inactive); in [12], 2.29 µM (inactive). Besides, the GI50 in [13] is 1.78 µM (inactive); in test [14], 1.64 µM (inactive); in [15] it was 1.85 µM (inactive); in test [16], 1.89 µM (inactive); in test [17], 2.29 µM (inactive); in test [18], 16.3 µM (inactive). Moreover, the GI50 in test [19] was 1.81 µM (inactive).
As to `COc1cccc2c1C1=CC(=O)CCC1C(C)(C)O2` (stereo not drawn), the GI50 is 60 µM (inactive) in [1]; > 100 µM (inactive) in [3]; > 100 µM (inactive) in [4]; > 100 µM (inactive) in test [7]; > 100 µM (inactive) in test [8]; > 100 µM (inactive) in test [9]. Also, the GI50 is > 100 µM (inactive) in test [20]; > 100 µM (inactive) in test [10]; 67.6 µM (inactive) in [12]; > 100 µM (inactive) in [13]; 45.3 µM (inactive) in [15]; 35.7 µM (inactive) in test [16]. Also, the GI50 in test [17] and in test [18] was > 100 µM (inactive) throughout.
For `c1ccc2c(c1)Nc1c3ccccc3nc3cccc-2c13`, the GI50 was 1.58 µM (inactive) in test [1]; 1.17 µM (inactive) in test [2]; 2.51 µM (inactive) in test [3]; 0.979 µM (active) in [4]; 1.61 µM (inactive) in test [5]; 1.24 µM (inactive) in test [6]. In addition, the GI50 in test [7] is 1.43 µM (inactive); in [8], 1.65 µM (inactive); in [9], 1.6 µM (inactive); in test [10] it was 1.82 µM (inactive); in test [11] it was 7.43 µM (inactive); in [12], 0.857 µM (active). For the same molecule, the GI50 in test [13] is 1.6 µM (inactive); in test [14], 0.462 µM (active); in test [15], 0.998 µM (active); in test [16], 0.877 µM (active); in test [17] it was 1.42 µM (inactive); in test [18], 1.35 µM (inactive). Moreover, the GI50 in [19] was 1.02 µM (active).
Turning to `CC(=O)NNc1nc(C)c(C(/C=C/c2ccccc2O)=N/N=C(N)N)s1`, the GI50 in [1], in [2], in test [3], in test [4], in [5] and in test [6] was > 100 µM (inactive) in each case. Further, the GI50 in test [7], in [8], in test [9], in test [10], in test [11] and in [12] was > 100 µM (inactive) in each case. The GI50 in test [13], in test [14], in test [15], in [16], in test [17] and in [18] was > 100 µM (inactive) throughout. Also, the GI50 in test [19] was > 100 µM (inactive).
On to `CC(C)(C)NCCC(O)c1cc(C(F)(F)F)nc2c(C(F)(F)F)cccc12` (stereo not drawn), for which the GI50 in test [1] was 6.37 µM (inactive); in test [2] it was 11.5 µM (inactive); in test [3] it was 15 µM (inactive); in [4], 7.71 µM (inactive); in test [5] it was 12.9 µM (inactive); in test [6], 12.6 µM (inactive). The GI50 in test [7] is 15.2 µM (inactive); in [8], 11.1 µM (inactive); in test [9], 14.7 µM (inactive); in test [10] it was 13.6 µM (inactive); in [11] it was 8.11 µM (inactive); in [12], 10.7 µM (inactive). Besides, the GI50 was 11.2 µM (inactive) in [13]; 3.62 µM (inactive) in [14]; 7.53 µM (inactive) in test [15]; 1.12 µM (inactive) in test [16]; 12.5 µM (inactive) in [17]; 4.26 µM (inactive) in test [18]. Also, in test [19], the GI50 was 2.43 µM (inactive).
